{"source": "patent US20010005714A1", "about": "“AMPHIPATHIC MOLECULES AS CHOLESTEROL AND OTHER LIPID UPTAKE INHIBITORS” (priority 1996, published 2001)", "key": {"[1]": {"test_system": "brush border membrane vesicles (BBMV)", "experiment": "IC50 of cholesteryl oleate uptake at the brush border membrane (Example 6)", "format": "biochemical, rabbit", "conditions": "donor 0.1 mg total lipid/ml, acceptor 2 mg protein/ml; 20 min at 25° C.", "method": "An appropriate amount of inhibitor dissolved in 84.5 μl buffer (0.05 M Tris pH 7.4, 0.15 M NaCl) is mixed in an Eppendorf tube at time zero with 5 μl of a dispersion of donor and 10.5 μl of a dispersion of acceptor (i.e. brush border membrane vesicles (BBMV)) in the same buffer. The final concentration of the donor vesicles was 0.1 mg total lipid/ml, that of the acceptor was 2 mg protein/ml. The resulting mixture was incubated for 20 min at 25° C., and the reaction was stopped by adding 60 μl of the incubation medium to 120 μl ice-cold bufferin an airfuge tube. The diluted dispersion was immediately centrifuiaed in the airfuge at […] for 2 min. at 4° C. to separate donor vesicles from BBMV. Two 60 μl aliquots of the donor (=supernatant) were counted in a Beckman LS-7500 liquid scintillating counter to determine the radioactivity remaining in tbe donor.\nSmall unilamellar egg phosphatidycholine (PC) vesicles containing 1 mol % of cholesterol oleate and a trace amount of ^3H-cholesterol oleyl ether were made by dissolving the appropriate amounts of the lipids in CHCl3/CH3OH, (2:1, by vol.), taking the solution to dryness on a rotary evaporator and drying the residue in vacuo. The dried lipid film was dispersed in the appropriate volume of buffer by hand-shaking. The lipid dispersion was subjected to tip sonication as described in Brunner et al, J. Biol. Chem. 253 7538-7546 (1978). The resulting donor dispersion in buffer was centrifuged in the airfuge at 100000 g for 2 min at […]. Only the top 80% of the donor dispersion after centrifugation was used in the lipid uptake experiment.\nBBMV were prepared from frozen rabbit small intestine according to Hauser et al (Biochim. Biophys. Acta 602 567-577 (1980)). Prior to use in the uptake experiment determining IC50 values the BBMV were washed to remove any free protein liberated from the BBM. To this end the BBMV dispersion was diluted with buffer 1:1 in an airfuge tube, and the diluted dispersion was centrifuged in the airfuga at 100000 g for 2 min at […]. The supernatant was is carefully decanted, the pellet was resuspended in buffer to the original volume of the BBMV dispersion, and the dispersion was homogenized. […]"}, "[2]": {"test_system": "normal human BBMV", "experiment": "[14C]Cholesterol uptake from egg PC vesicles by normal human duodenal BBMV", "format": "biochemical", "method": "(§1) Biopsy samples from human duodenum, 20 to 30 mg of wet tissue each, were suspended in 200 μl buffer (12 mM Tris HCl pH 7.2, 300 mM mannitol, 5 mM EGTA, 1 mM phenylmethylsulfonyl fluoride), frozen in liquid nitrogen and stored at −80° C. prior to use. BBMV were prepared by Mg^+2 precipitation (Hauser et al, Biochim. Biophys. Acta 602 567-577 (1980)) as described in detail by Booth et al (Lancet 1 1066-1069 (1985)). Proteinase K treatment of the BBMV was carried out according to Thurnhofer and Hauser (Biochim. Biophys. Acta 1024 249-262 (1990)). […] Small unilamellar phesrholipid vesicles were prepared by tip sonication (Schulthess, Biochemistry 33 4500-4508 (1994)).\n(I) Egg PC small unilamellar vesicles containing […] (^14C] cholesterol and BBMV both dispersed in 10 mM Tris-HCl pH 7.2, 0.15 M NaCl, 5 mM EDTA were incubated at room temperature. After timed intervals phospholipid vesicles and BBMV were separated by centrifugation at 115000 g for 2 min in a Beckman airfuge. The radioactivities present in pellet and supernatant were determined by counting aliquots in a Beckman LS 7500 liquid scintillatior counter. Fusion of egg PC small unilamellar vesicles and BBMV as a possible mechanism of cholesterol uptake was ruled out as discussed in detail in previous studies (Thurnhofer and Hauser, Biochemistry 29 2142-2148 (1990); Compassi, Biochemistry 34 16473-16482 (1995) and Schulthess, J. Lipid. Res. 37 2405-2419 (1996)).\nThe experimental data were computer-fitted using the following equation valid for single-exponential exchange reactions: X=X∞+[XO−X∞]e^-k1^[(a+b)/a]t, where XO, X and X∞represent the fractions of the labelled lipid in the donor at times 0, t and at equilibrium, respectively. K1 is the pseudo-first-order rate constant of the reaction and a and b are the lipid pools of acceptor and donor, respectively (McKay, Nature 142 997-998 (1938) and Mutsch et al, Biochemistry 25 2134-2140 (1986).\n(§2) Kinetic measurements were also carried out in the presence of inhibitors; synthetic peptides or apolipoproteins were added to the […] of donor and acceptor vesicles. Cholesterol uptake by native and proteinase K treated BBMV was determined in the presence of increasing concentrations of Ac-18A-NH2, the difference between cholesterol uptake by native and proteinase K treated BBMV is referred as protein-mediated cholesterol uptake in FIG. 6. The IC50 values were determined according to Methods Enzymol. 37 3-22 (1975)."}, "[3]": {"test_system": "abetalipoproteinemic BBMV", "experiment": "[14C]Cholesterol uptake from egg PC vesicles by abetalipoproteinemic BBMV", "format": "biochemical, human", "conditions": "donor egg PC vesicles 0.01 mg lipid/ml, acceptor abetalipoproteinemic BBMV 0.25 mg lipid/ml; read-out: Inhibition IC50: concentration required to reduce protein-mediated cholesterol uptake by 50%", "method": "as §1, with “(1994)). […]” for “(1994)).”\n(§3) Kinetic measurements were also carried out in the presence of inhibitors; synthetic peptides or apolipoproteins were added to the […] of donor and acceptor vesicles. Cholesterol uptake by native and proteinase K treated BBMV was determined in the presence of increasing concentrations of Ac-18A-NH2, the difference between cholesterol uptake by native and proteinase K treated BBMV is referred as protein-mediated cholesterol uptake in FIG. 6. The IC50 values were determined according to Methods Enzymol. […]"}, "[4]": {"target": "proteinase K-treated normal BBMV", "experiment": "[14C]Cholesterol uptake from egg PC vesicles by proteinase K-treated normal BBMV", "format": "biochemical, human", "method": "as §1, with “(1994)). […]” for “(1994)).”\nas §3"}, "[5]": {"experiment": "[14C]Cholesterol transfer from egg PC vesicles to egg PC/egg PA vesicles", "format": "biochemical", "method": "(II) Similarly, egg PC small unilamellar vesicles containing 1 mol % [^14C] cholesterol as the donor and small unilamellar vesicles of egg PC/egg PA (85:15, mole ratio) as the acceptor were incubated at room temperature. After timed intervals aliquots of the incubation mixture were filtered through DEAE Sepharose C1-CB columns, which retained the negatively charged vesicles. Pure egg PC vesicles were eluted and their radioactivity determined.\nas §2"}, "[6]": {"test_system": "BBMVs", "experiment": "Inhibition of cholesteryl oleate uptake by BBMVs by peptides of varying lengths (Example 8)", "format": "biochemical", "conditions": "120 μg peptide/ml", "method": "going from one peptide to the other (top→bottom) 3 amino acids were removed from the N-terminus. The inhibitory effect of the four peptides listed above were compared at 120 μg peptide/ml. The lipid uptake by BBMVs was measured in the presence of 120 μg peptide/ml each as described below.\nDonor and acceptor particles dispersed in Tris/NaCl buffer were centrifuged in a Beckman airfuge at 115000 g is for 2 min at 4° C. The dispersion of the acceptor yielded a pellet which was resuspended in Tris/NaCl buffer. Varying amounts of inhibitor dissolved in the same buffer were added to the acceptor dispersion and at time zero the dispersiorn of acceptor with or without inhibitor was mixed with the top 80% of the supernatant obtained by centrifugation of the donor dispersion. The final concentration of the donor was 0.05 mg total lipid/ml and that of the acceptor was 5 mg protein/ml. The resulting dispersion was incubated at 23° C. and after timed intervals the sterol uptake was stopped by dilution of the incubation medium with 2 volumes of Tris/NaCl buffer. BBMV were separated from the donor by centrifugation in the Beckman airfuge at 115000 g for 2 min at 4° C. The radioactivities in the supernatant containing the donor and in the pellet containing the BBMV (acceptor) were determined in a Beckman LS 7500 scintillation counter."}}}
{"substance": "Ac-Asp-Trp-Leu-Lys-Alα-Phe-Tyr-Asp-Lys-Val-Alα -Glu-Lys-Leu-Lys-Glu-Alα-Phe-NH2 [Ac-18A-NH2, amphipathic α-helix of class A peptide, N-acetylated and C-amidated 18A]", "values": [{"measurement": "IC50", "setting": "[1]", "result": "16 ± 1", "unit": "µM"}, {"measurement": "IC50 (μg/mL) of cholesteryl oleate uptake at the brush border membrane", "setting": "[1]", "result": "35 ± 2", "unit": "µg/mL"}, {"measurement": "effect on passive cholesterol transfer (in words)", "setting": "[2]", "result": "no inhibitory effect"}, {"measurement": "half time of residual cholesterol uptake by native BBMV not inhibited by the peptide", "setting": "[2]; 60 μM Ac-18A-NH2", "result": "6.7 ± 1.4", "unit": "h"}, {"measurement": "IC50", "setting": "[2]; donor egg PC vesicles 0.01 mg lipid/ml, acceptor normal human BBMV 0.25 mg lipid/ml, 20 min, read-out: Inhibition IC50: concentration required to reduce protein-mediated cholesterol uptake by 50%", "result": "23 ± 1", "unit": "µM"}, {"measurement": "inhibition of protein-mediated cholesterol uptake (in words)", "setting": "[2]; human duodenal BBMV", "result": "effectively and completely inhibited"}, {"measurement": "IC50", "setting": "[3]", "result": "23 ± 3", "unit": "µM"}, {"measurement": "Inhibition IC50", "setting": "[4]; donor egg PC vesicles 0.01 mg lipid/ml, acceptor proteinase K-treated normal BBMV 0.25 mg lipid/ml", "result": "no inhibition"}, {"measurement": "inhibitory effect on cholesterol uptake (in words)", "setting": "[4]; proteinase K-treated BBMV", "result": "no inhibitory effect"}, {"measurement": "inhibitory effect on cholesterol transfer between phospholipid vesicles (in words)", "setting": "[5]", "result": "no inhibitory effect"}, {"measurement": "Inhibition IC50", "setting": "[5]; donor egg PC vesicles 0.01 mg lipid/ml, acceptor egg PC/egg PA vesicles 0.25 mg lipid/ml", "result": "no inhibition"}, {"measurement": "inhibitory effect on cholesteryl oleate uptake (in words, footnote)", "setting": "[6]", "result": "Useful inhibitory effect is seen with Peptides Nos. 1 and 2."}, {"measurement": "Inhibition of Cholesteryloleate Uptake In. %", "setting": "[6]; donor 0.05 mg total lipid/ml, acceptor 5 mg protein/ml, 23° C.", "result": 100, "unit": "%"}]}
